Measured values published in patent publication US20190105367A1, “ANTIMICROBIAL 4-OXOQUINOLIZINES” (Emergent Product Development Gaithersburg Inc., priority 2011, published 2019).
Converted amounts (≈) assume the structure as drawn. Where two headings read alike, the source gives them in different places.

Legend:
[1] = system: A. baumannii A14; assay: Preliminary MBC without and with sub-inhibitory polymyxin B (Example 4); assay type: cell-based, Acinetobacter baumannii; details: A. baumannii A14, preliminary MBC, 1st experiment; for MBC +0.06 μg/ml PB: +0.06 μg/ml polymyxin B
[2] = system: B. thailandensis; assay type: cell-based, Burkholderia thailandensis
[3] = system: strains of A. baumannii and one strain of Acinetobacter sp.; assay: MIC without polymyxin B, panel of Acinetobacter strains (Example 4); assay type: cell-based
[4] = system: A. baumannii A329; assay: MIC without and with sub-inhibitory polymyxin B (Example 4); assay type: cell-based, Acinetobacter baumannii
[5] = system: A. baumannii A489; assay: Preliminary MBC without and with sub-inhibitory polymyxin B (Example 4); assay type: cell-based, Acinetobacter baumannii; details: preliminary MBC
[6] = system: A. baumannii A14; assay: MIC without and with sub-inhibitory polymyxin B (Example 4); assay type: cell-based, Acinetobacter baumannii; details: 2nd experiment
[7] = system: GN52 Acinetobacter baumannii levofloxacin resistant clinical isolate; assay: Chequerboard synergy with polymyxin B, FICI (Example 6); assay type: cell-based
Method in brief: (§1)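 Broth microdilution chequerboard per CLSI in cation-adjusted Mueller-Hinton broth II; doubling dilutions spanning ≥2 above to 4 below each agent's MIC, polymyxin B fixed at 0.008–8 mg/L (0.004–4 mg/L for GN31). FICI summed from each agent's combination MIC over its MIC alone.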

[8] = system: GN56 Acinetobacter baumannii levofloxacin resistant clinical isolate; assay: as above; assay type: cell-based
Method in brief: as §1

[9] = system: GN48 Klebsiella pneumoniae NCTC 13443 NDM-1-β-lactamase producing isolate; assay: as above; assay type: cell-based
Method in brief: as §1

[10] = system: GN31 Acinetobacter baumannii antibiotic susceptible isolate; assay: as above; assay type: cell-based
Method in brief: as §1

[11] = Cytotoxicity (Example 7); assay type: cell-based; details: human, HEPG2 V1 cells
Description: The 4-oxoquinolizine compounds of the invention preferably have a low cytotoxicity against human cells. […].
Cytotoxicity was determined for the instant 4-oxoquinolizine compounds which show low cytotoxicity. (see Table 17 following). […]

[12] = system: E. cloacae 13047; assay: MIC, standard panel of Gram-positive and Gram-negative strains (Example 2); assay type: cell-based, Enterobacter cloacae; details: Enterobacter cloacae, 13047; read-out: MIC E. cloacae 13047
[13] = system: E. faecium 19434; assay: as above; assay type: cell-based; details: Enterococcus faecium
[14] = system: S. aureus 25923 HS; assay: as above; assay type: cell-based; details: Staphylococcus aureus, read-out: MIC S. aureus 25923 HS
[15] = system: S. aureus 101; assay: as above; assay type: cell-based; details: Staphylococcus aureus
[16] = system: A. baumanii 19606; assay: as above; assay type: cell-based; details: Acinetobacter baumannii
[17] = system: S. pneumoniae 49619; assay: MIC, panel of quinolone-resistant strains (Example 2); assay type: cell-based, Streptococcus pneumoniae; details: Streptococcus pneumoniae, 49619; LEV S; read-out: MIC S. pneumoniae 49619
[18] = system: E. faecalis 29212; assay: MIC, standard panel of Gram-positive and Gram-negative strains (Example 2); assay type: cell-based, Enterococcus faecalis; details: Enterococcus faecalis, 29212; read-out: MIC E. faecalis 29212
[19] = system: S. aureus SMITH; assay: MIC, panel of quinolone-resistant strains (Example 2); assay type: cell-based; details: Staphylococcus aureus; CIP R; read-out: MIC S. aureus SMITH
[20] = system: S. aureus 25923; assay: MIC, standard panel of Gram-positive and Gram-negative strains (Example 2); assay type: cell-based; details: Staphylococcus aureus
[21] = A. baumannii A329, +0.06 μg/ml PB, 2nd experiment
[22] = A. baumannii A14, +0.06 μg/ml PB
[23] = in combination with polymyxin B
[24] = polymyxin B with the named antibiotic
[25] = Acinetobacter baumannii, A489, A. baumannii A489, +[…] PB, 2nd experiment, read-out: MBC
[26] = Acinetobacter baumannii, A489, read-out: MBC +[…] PB, A. baumannii A489, +[…] polymyxin B, 1st experiment
[27] = Acinetobacter baumannii, A14, A. baumannii A14, without PB, read-out: MIC

With “8-[(3S)-3-aminocyclopentyl]-1- cyclopropyl-7-fluoro-9-methyl- 4-oxo-quinolizine-3-carboxylic acid [Compound 10, reference compound]” the “MBC +0.06 μg/ml PB” value [1] was 2.00 µg/mL, the “MBC without PB” value ([1]; without polymyxin B) was 2 µg/mL and the “MIC90 B. thailandensis” value [2] was <0.048 µg/mL. The “Dilutions improvement shift on B. thailandensis MIC90 (between pH 7 and pH 5)” value ([2]; pH 7 vs pH 5) was “Yes, 2x”, the “MIC range without PB Oct. 1, 2006 n = 8” value ([3]; 1st experiment, resistant strains, ATCC 19606, A329, A390 and A473 not taken) was 0.5 to 8 µg/mL and the “MIC range without PB Oct. 14, 2008 n = 11” value ([3]; 2nd experiment, all strains except the ATCC strain) was 0.5 to 2 µg/mL. The MIC [4, 21] was 1 µg/mL, the “MIC without PB/MIC + PB” value [4, 21] was 2 and the “MIC read with alamar blue” value ([4]; A. baumannii A329, +0.06 μg/ml PB, value in parentheses, 2nd experiment) was 2 µg/mL. For the same compound, the MIC ([4]; A. baumannii A329, without PB, 2nd experiment) was 2 µg/mL, the “MIC without PB” value ([4]; A. baumannii A329, without polymyxin B, 1st experiment) was 8 µg/mL and the MBC ([5]; A. baumannii A489, +[…] PB, 2nd experiment) was 1 µg/mL. The “MBC +[…] PB” value ([5]; A. baumannii A489, +[…] polymyxin B, 1st experiment) was 1.00 µg/mL, the MBC ([5]; A. baumannii A489, without PB, 2nd experiment) was 1 µg/mL and the “MBC without PB” value ([5]; A. baumannii A489, without polymyxin B, 1st experiment) was 1 µg/mL. For the same compound, the MIC [6, 22] was 2 µg/mL, the “MIC without PB/MIC + PB” value [6, 22] was 1 and the MIC ([6]; A. baumannii A14, without PB) was 2 µg/mL.

In the case of Cc1c(-c2cc(F)c(N)cc2F)ccn2c(=O)c(C(=O)O)cc(C3CC3)c12 [Compound 2, 8-(4-amino-2,5-difluorophenyl)-1-cyclopropyl-9-methyl-4-oxo-4H-quinolizine-3-carboxylic acid], the “Combination drug MIC alone” value [7] is reported as 4 µg/mL, the FICx [7] is reported as 0.25 and the FICy [7] is reported as 0.24. The FICI ([7]; combination with polymyxin B) was 0.49, the Synergy ([7]; combination with polymyxin B) was “Synergy (Synergy (FICI <0.5))” and the “Combination drug concentration in combination” value (“Combination drug concentration” for short) [7, 23] was 1 mg/L. For the same compound, the “Polymyxin B MIC in combination” value [7, 24] was 0.12 µg/mL, the “Combination drug MIC alone” value [8] was 16 µg/mL and the FICx [8] was 0.06. The FICy [8] was 0.50, the FICI ([8]; combination with polymyxin B) was 0.56 and the Synergy ([8]; combination with polymyxin B) was “Partial synergy (partial synergy/addition (FICI 0.51 to 0.75))”. For the same compound, the “Combination drug concentration” value [8, 23] was 1 mg/L, the “Polymyxin B MIC in combination” value [8, 24] was 0.25 µg/mL and the “Combination drug MIC alone” value [9] was 32 µg/mL. For the same compound, the FICx [9] was 0.13, the FICy [9] was 0.50 and the FICI ([9]; combination with polymyxin B) was 0.63. For the same compound, the Synergy ([9]; combination with polymyxin B) was “Partial synergy (partial synergy/addition (FICI 0.51 to 0.75))”, the Synergy ([9]; combination with polymyxin B, listed as compound 2) was “partial synergy” and the “Combination drug concentration” value [9, 23] was 4 mg/L. The “Polymyxin B MIC in combination” value [9, 24] was 0.25 µg/mL, the “Combination drug MIC alone” value [10] was 0.06 µg/mL and the FICx [10] was 0.25. For the same compound, the FICy [10] was 0.24, the FICI ([10]; combination with polymyxin B) was 0.49 and the Synergy ([10]; combination with polymyxin B) was “Synergy (Synergy (FICI <0.5))”. The “Combination drug concentration” value [10, 23] was 0.015 mg/L, the “Polymyxin B MIC in combination” value [10, 24] was 0.06 µg/mL and the “MBC +0.06 μg/ml PB” value [1] was ≤0.03 µg/mL. For the same compound, the IC50 [11] was 250 µM, the MIC [12] was 0.25 µg/mL (≈ 0.675 µM) and the “MIC without PB/MIC + PB” value [4, 21] was 16. The MBC [5, 25] was ≤ 0.03 µg/mL, the MBC [5, 26] was ≤ 0.03 µg/mL and the MIC [13] was 0.5 µg/mL (≈ 1.35 µM). For the same compound, the MIC [14] was 0.125 µg/mL (≈ 0.338 µM), the MIC [6, 22] was 0.06 µg/mL (≈ 0.162 µM) and the “MIC without PB/MIC + PB” value [6, 22] was 256. For the same compound, the MIC [6, 27] was 16 µg/mL (≈ 43.2 µM), the MIC [15] was 0.125 µg/mL (≈ 0.338 µM) and the MIC [16] was 0.06 µg/mL (≈ 0.162 µM).

For Cc1c(-c2ccc(CN)c(F)c2)ccn2c(=O)c(C(=O)O)cc(C3CC3)c12 [Compound 4, 8-(3-fluoro-4-aminomethyl-phenyl)-1-cyclopropyl-9-methyl-4-oxo-quinolizine-3-carboxylic acid], the “MBC +0.06 μg/ml PB” value [1] was 8 µg/mL, the MIC [17] was 0.125 µg/mL (≈ 0.341 µM) and the MIC [18] was 0.125 µg/mL (≈ 0.341 µM). It also gave an IC50 [11] of 60 µM, an MIC [12] of 0.06 µg/mL (≈ 0.164 µM) and an MIC [19] of 0.125 µg/mL (≈ 0.341 µM). For the same compound, the “MIC without PB/MIC + PB” value [4, 21] was 2, the MIC ([4]; Acinetobacter baumannii, A329, A. baumannii A329, +0.06 μg/ml PB, 2nd experiment, read-out: MIC) was 8 µg/mL (≈ 21.8 µM) and the MBC [5, 25] was 0.06 µg/mL (≈ 0.164 µM). It also gave an MBC [5, 26] of 1 µg/mL (≈ 2.73 µM), an MIC [14] of 0.125 µg/mL (≈ 0.341 µM) and an MIC [6, 22] of 2 µg/mL (≈ 5.46 µM). For the same compound, the “MIC without PB/MIC + PB” value [6, 22] was 16, the MIC [6, 27] was 32 µg/mL (≈ 87.3 µM) and the MIC [16] was 0.25 µg/mL (≈ 0.682 µM). The MIC [20] was 0.06 µg/mL (≈ 0.164 µM).
